From paper PMC7558026, “Exploring and applying the substrate promiscuity of a C-glycosyltransferase in the chemo-enzymatic synthesis of bioactive C-glycosides” (Nature Communications, 2020)

Experiments:
AbCGT [1] = target: T1, AbCGT (Aloe vera, UniProt A0A7G9P699); test: Glycosyltransferase activity assay, purified AbCGT (wild type) with aglycon acceptors and UDP-Glc; type: biochemical, Aloe barbadensis; conditions: aglycon acceptor with UDP-Glc, pH 7.4, 30 °C, up to 12 h; Reaction-1 to -3
AbCGT [2] = target: T1, AbCGT; test: Kinetic parameters of AbCGT (wild type); type: biochemical, Aloe barbadensis; conditions: acceptor varied, saturating UDP-Glc, pH 7.4, 30 °C
Method: The reactions terminated by the addition of 200 μL of ice-cold methanol. Subsequently, samples were centrifuged at 15,000 × g for 30 min to collect the supernatant, and aliquots were analyzed by HPLC as described above. All experiments were performed in triplicate. The value of Km was calculated with the method of Lineweaver–Burk plot.

T1 sequence (A0A7G9P699 entry or part of it): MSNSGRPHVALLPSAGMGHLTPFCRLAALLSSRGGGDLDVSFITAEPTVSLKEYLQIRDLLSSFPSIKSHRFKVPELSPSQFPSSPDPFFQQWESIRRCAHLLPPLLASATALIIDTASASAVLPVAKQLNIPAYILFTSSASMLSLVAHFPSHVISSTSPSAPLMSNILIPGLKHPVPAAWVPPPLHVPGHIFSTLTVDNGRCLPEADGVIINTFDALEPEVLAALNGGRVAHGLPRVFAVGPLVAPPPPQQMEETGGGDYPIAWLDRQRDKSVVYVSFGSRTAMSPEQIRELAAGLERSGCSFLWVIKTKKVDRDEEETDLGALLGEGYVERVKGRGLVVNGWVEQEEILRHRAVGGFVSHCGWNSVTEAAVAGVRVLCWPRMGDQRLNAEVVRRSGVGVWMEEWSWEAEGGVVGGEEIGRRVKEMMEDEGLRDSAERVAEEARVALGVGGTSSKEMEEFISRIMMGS

CC(=O)c1c(O)cc(O)cc1O [Compound 11, phloracetophene]
conversion rates, O,N,S-glycosylation (AbCGT [1]): 0% | conversion rates, di-C-glycosylation (AbCGT [1]): 100% | conversion rates, mono-C-glycosylation (AbCGT [1]): 0% | Kcat (AbCGT [2]): 2.4 s⁻¹
